Values joined by “and” are separate entries in the source; they are usually repeats but may differ in a detail not shown here. Equal entries are not always repeated.
Key:
SARS-CoV-2 WAS-Calu-3 = system: SARS-CoV-2 WAS-Calu-3; set-up: species or system Golden Syrian Hamsters; settings: hamster, in vivo
[1] = system: SARS-CoV-2 isolate Hong Kong/VM20001061/2020; experiment: microbe, parasite or virus in culture; format: cell-based; set-up: % of control: dose or concentration left out as unconfirmed; settings: 48 hours
[2] = system: Pseudovirus rVSV-SARS-CoV-2; experiment: microbe, parasite or virus in culture; format: cell-based; settings: for IC50: Pseudovirus, Vero, 24 h, read-out: NT50

Row | SMILES | body weight of infected, treated hamsters (SARS-CoV-2 WAS-Calu-3) | viral titers from harvested lungs (SARS-CoV-2 WAS-Calu-3) | % of control [1] | inhibition at 3120 µg/mL ([1]; Severe acute respiratory syndrome coronavirus 2, HEK-293T, 3.12 mg/ml) [%] | neutralization of SARS CoV-2 infection in vitro [2] | IC50 [2] [mg/mL]
1 | CCCCOP(=O)(O)OC[C@H]1O[C@@H](n2cc(C)c(=O)[nH]c2=O)C[C@@H]1OP(=O)(O)OCCCC [Nu-3, butyl-phosphate-5′-thymidine-3′-phosphate-butyl] | began to regain body weight | did not show any measurable viral particles, with the exception of one hamster | – | – | – | –
2 | CCCCOP(=O)(O)OC[C@H]1O[C@@H](n2ccc(N)nc2=O)C[C@@H]1OP(=O)(O)OCCCC [Nu-8, ((2R,3S,5R)-5-(4-amino-2-oxopyrimidin-1(2H)-yl)-3-((butoxyoxidophosphor-yl)oxy)tetrahydrofuran-2-yl)methyl butyl phosphate] | began to regain body weight | no virus detected | – | – | – | –
3 | CCCCOP(=O)(O)OC[C@H]1O[C@@H](n2ccc(N)nc2=O)[C@H](OC)[C@@H]1OP(=O)(O)OCCCC [Nu-10, ((2R,3R,4R,5R)-5-(4-amino-2-oxopyrimidin-1(2H)-yl)-3-((butoxy(hydroxy)phosphoryl)oxy)-4-methoxytetrahydrofuran-2-yl) methyl butyl hydrogen phosphate] | – | – | 3% and 8% | 97 | neutralize SARS CoV-2 infection in vitro | 21.8
4 | CCCCOP(=O)(O)OC[C@H]1O[C@@H](n2cnc3c(N)ncnc32)[C@H](OC)[C@@H]1OP(=O)(O)OCCCC [Nu-11, (2R,3R,4R,5R)-5-(6-aminopurin-9-yl)-3-((butoxy(hydroxy)phosphoryl)oxy)-4-methoxytetrahydrofuran-2-yl)methyl butyl hydrogen phosphate] | – | – | – | – | neutralize SARS CoV-2 infection in vitro | 1.15
